{"source": "paper PMC6277767", "about": "“Broad and Region-Specific Impacts of the Synthetic Cannabinoid CP 55,940 in Adolescent and Adult Female Mouse Brains” (Frontiers in Molecular Neuroscience, 2018)", "system": "CD1 female mouse brain lipidome", "test": "Brain-region lipid levels (HPLC/MS/MS lipidomics) 2 h after single i.p. 3 mg/kg CP 55,940 vs vehicle", "type": "in vivo", "design": "N-arachidonoyl phenylalanine level, Mean / N-stearoyl tryptophan level, Mean / N-stearoyl proline level, Mean / N-stearoyl leucine level, Mean / N-stearoyl phenylalanine level, Mean / N-stearoyl serine level, Mean / N-stearoyl methionine level, Mean: unit: moles per gram", "method": "The Bloomington Institutional Animal Care and Use Committee of Indiana University reviewed and approved the animal procedures. Female mice from the CD1 strain were utilized to match our study examining THC’s effects on the brain lipidome ([Leishman et al., 2018]). Mice were given a single i.p. injection of either 3 mg/kg CP or 1:1:18 cremophor:ethanol:saline vehicle (please refer to the section “3 mg/kg CP Is Relevant for Synthetic Cannabinoid Abuse and Has Stronger Effects on the Female Mouse Brain Lipidome During Adolescence” for a justification of dose and use of female mice). Three different age groups were given injections: PND 35 and PND 50 adolescents, and adult mice (PND 113). At least eight mice in each age group received CP and at least eight received vehicle. Matching the THC study time course ([Leishman et al., 2018]), mice were sacrificed via rapid decapitation 2 h after injection. Brains were immediately removed and flash-frozen in liquid nitrogen, and then stored at -80°C until dissections were performed. Brains were dissected on an ice-cold dissection plate into the following regions: STR, HIPP, CER, THAL, CTX, HYP, MID, and STEM. These abbreviations for these brain areas will be used exclusively when discussing the results generated by these specific dissections. Each dissected area was immediately placed in liquid nitrogen and then stored at -80°C until used for lipid extraction.\nTissue extracts were performed as previously described ([Bradshaw et al., 2006]; [Stuart et al., 2013]; [Raboune et al., 2014]; [Leishman et al., 2016a],[b], [2017], [2018]). First, samples were shock frozen in liquid nitrogen, weighed, and transferred to a centrifuge tube. The mass of the largest sample was multiplied by 50 to determine how many milliliters of HPLC-grade methanol (Fisher, Fair Lawn, NJ, United States) to add. Then, samples were spiked with 500 pmol deuterium-labeled NAGly (d8NAGly; Cayman Chemical, Ann Arbor, MI, United States). Samples were placed on ice in darkness for 2 h then individually homogenized and centrifuged at 19,000 × g for 20 min at 20°C. Supernatants were diluted with HPLC water (purified in house) to make a solution of 75% water, 25% supernatant. Lipids were partially purified on C18 solid phase extraction columns (Agilent, Palo Alto, CA, United States). A series of four elutions with 1.5 mL of 60%, 75%, 85%, and 100% methanol were collected ([Stuart et al., 2013]; [Leishman et al., 2016a],[b], [2018]).\nAs previously described ([Bradshaw et al., 2006]; [Tan et al., 2006]; [Smoum et al., 2010]; [Stuart et al., 2013]; [Tortoriello et al., 2013]; [Raboune et al., 2014]; [Leishman et al., 2016a],[b], [2017], [2018]), samples were analyzed using an Applied Biosystems API 3000 triple quadrupole mass spectrometer with electrospray ionization (Foster City, CA, United States). Using an Agilent XDB-C18 reversed phase analytical column and optimized mobile phase gradients, 20 μL from each elution were chromatographed. Two Shimadzu 10ADvp pumps (Columbia, MD, United States) provided the pressure for gradient elution. Mobile phase A: 20% methanol, 80% water (v/v) and 1 mM ammonium acetate (Sigma, St. Louis, MO, United States). Mobile phase B: 100% methanol, 1 mM ammonium acetate. Every method run began with 0% mobile phase B, reached 100% mobile phase B flowing at 0.2 mL/min, and gradually returned to 0% mobile phase B.\nThis screening library will be referred to as the lipidome when discussing data from this study. HPLC/MS/MS data were analyzed using Analyst software (Applied Biosystems) ([Bradshaw et al., 2006]; [Tan et al., 2006]; [Stuart et al., 2013]; [Tortoriello et al., 2013]; [Raboune et al., 2014]; [Leishman et al., 2016a],[b], [2017], [2018]). Chromatograms (Supplementary Figure 3) were generated by determining the retention time of analytes from the analytical column with a [M-1] or [M+1] parent peak and a fragmentation peak corresponding to the programmed values. […]", "key": {"[1]": {"settings": "hypothalamus, PND 35 adolescent female mice, 3 mg/kg"}, "[2]": {"settings": "midbrain, PND 50, 3mg/kg CP 55,940"}, "[3]": {"settings": "midbrain, PND 50, 3mg/kg CP 55,940, ANOVA p .000"}, "[4]": {"settings": "midbrain, PND 50, 3mg/kg CP 55,940, ANOVA p .001"}, "[5]": {"settings": "midbrain, PND 50, 3mg/kg CP 55,940, ANOVA p .003"}}, "data": [{"compound": "CCCCCCC(C)(C)c1ccc([C@@H]2C[C@H](O)CC[C@H]2CCCO)c(O)c1", "note": "[CP 55,940]", "values": [{"measurement": "N-stearoyl leucine level, Mean", "setting": "[1]", "result": "1.34E-12"}, {"measurement": "N-stearoyl phenylalanine level, Mean", "setting": "[1]", "result": "1.92E-12"}, {"measurement": "N-stearoyl serine level, Mean", "setting": "[1]", "result": "2.17E-11"}, {"measurement": "N-stearoyl tryptophan level, Mean", "setting": "[1]", "result": "7.7E-12"}, {"measurement": "Oleic acid level, Mean", "setting": "[1]", "result": "7.46E-10"}, {"measurement": "PGE2 level, Mean", "setting": "[1]", "result": "2.42E-10"}, {"measurement": "PhosphoLEA level, Mean", "setting": "[1]", "result": "6.47E-11"}, {"measurement": "2-linoleoyl glycerol Direction (relative to Veh)", "setting": "[2]", "result": "↓"}, {"measurement": "2-oleoyl glycerol, Direction (relative to Veh)", "setting": "[2]", "result": "↓"}, {"measurement": "6-ketoPGF1α Direction (relative to Veh)", "setting": "[2]", "result": "↓"}, {"measurement": "Arachidonic acid, Direction (relative to Veh)", "setting": "[2]", "result": "↓"}, {"measurement": "Linoleic acid, Direction (relative to Veh)", "setting": "[2]", "result": "↓"}, {"measurement": "N-arachidonoyl GABA Direction (relative to Veh)", "setting": "[2]", "result": "↓"}, {"measurement": "N-arachidonoyl alanine, Direction (relative to Veh)", "setting": "[2]", "result": "↓"}, {"measurement": "N-arachidonoyl ethanolamine, Direction (relative to Veh)", "setting": "[2]", "result": "↓"}, {"measurement": "N-arachidonoyl glycine Direction (relative to Veh)", "setting": "[2]", "result": "↓"}, {"measurement": "N-arachidonoyl methionine, Direction (relative to Veh)", "setting": "[2]", "result": "↓"}, {"measurement": "N-arachidonoyl phenylalanine, Direction (relative to Veh)", "setting": "[2]", "result": "↓"}, {"measurement": "N-arachidonoyl tyrosine, Direction (relative to Veh)", "setting": "[2]", "result": "↓"}, {"measurement": "N-docosahexaenoyl GABA Direction (relative to Veh)", "setting": "[2]", "result": "↓"}, {"measurement": "N-docosahexaenoyl ethanolamine, Direction (relative to Veh)", "setting": "[2]", "result": "↓"}, {"measurement": "N-docosahexaenoyl leucine Direction (relative to Veh)", "setting": "[2]", "result": "↑"}, {"measurement": "N-linoleoyl ethanolamine, Direction (relative to Veh)", "setting": "[2]", "result": "↓"}, {"measurement": "N-oleoyl ethanolamine, Direction (relative to Veh)", "setting": "[2]", "result": "↓"}, {"measurement": "N-oleoyl methionine, Direction (relative to Veh)", "setting": "[2]", "result": "↓"}, {"measurement": "N-palmitoyl alanine, Direction (relative to Veh)", "setting": "[2]", "result": "↓"}, {"measurement": "N-palmitoyl ethanolamine, Direction (relative to Veh)", "setting": "[2]", "result": "↓"}, {"measurement": "N-palmitoyl leucine, Direction (relative to Veh)", "setting": "[2]", "result": "↑"}, {"measurement": "N-palmitoyl serine, Direction (relative to Veh)", "setting": "[2]", "result": "↓"}, {"measurement": "N-stearoyl methionine, Direction (relative to Veh)", "setting": "[2]", "result": "↓"}, {"measurement": "N-stearoyl phenylalanine, Direction (relative to Veh)", "setting": "[2]", "result": "↓"}, {"measurement": "PGE2 Direction (relative to Veh)", "setting": "[2]", "result": "↓"}, {"measurement": "PGF2α Direction (relative to Veh)", "setting": "[2]", "result": "↓"}, {"measurement": "Arachidonic acid, Magnitude (x Veh level)", "setting": "[3]", "result": 0.74, "unit": "x Veh level"}, {"measurement": "N-arachidonoyl glycine Magnitude (x Veh level)", "setting": "[3]", "result": 0.65, "unit": "x Veh level"}, {"measurement": "N-arachidonoyl methionine, Magnitude (x Veh level)", "setting": "[3]", "result": 0.64, "unit": "x Veh level"}, {"measurement": "N-arachidonoyl phenylalanine, Magnitude (x Veh level)", "setting": "[3]", "result": 0.69, "unit": "x Veh level"}, {"measurement": "N-arachidonoyl tyrosine, Magnitude (x Veh level)", "setting": "[4]", "result": 0.68, "unit": "x Veh level"}, {"measurement": "PGE2 Magnitude (x Veh level)", "setting": "[4]", "result": 0.75, "unit": "x Veh level"}, {"measurement": "N-palmitoyl leucine, Magnitude (x Veh level)", "setting": "midbrain, PND 50, 3mg/kg CP 55,940, ANOVA p .002", "result": 1.33, "unit": "x Veh level"}, {"measurement": "N-docosahexaenoyl GABA Magnitude (x Veh level)", "setting": "[5]", "result": 0.71, "unit": "x Veh level"}, {"measurement": "N-linoleoyl ethanolamine, Magnitude (x Veh level)", "setting": "[5]", "result": 0.81, "unit": "x Veh level"}, {"measurement": "Linoleic acid, Magnitude (x Veh level)", "setting": "midbrain, PND 50, 3mg/kg CP 55,940, ANOVA p .004", "result": 0.75, "unit": "x Veh level"}, {"measurement": "PGF2α Magnitude (x Veh level)", "setting": "midbrain, PND 50, 3mg/kg CP 55,940, ANOVA p .007", "result": 0.82, "unit": "x Veh level"}, {"measurement": "N-palmitoyl ethanolamine, Magnitude (x Veh level)", "setting": "midbrain, PND 50, 3mg/kg CP 55,940, ANOVA p .011", "result": 0.86, "unit": "x Veh level"}, {"measurement": "2-linoleoyl glycerol Magnitude (x Veh level)", "setting": "midbrain, PND 50, 3mg/kg CP 55,940, ANOVA p .017", "result": 0.82, "unit": "x Veh level"}, {"measurement": "N-arachidonoyl GABA Magnitude (x Veh level)", "setting": "midbrain, PND 50, 3mg/kg CP 55,940, ANOVA p .021", "result": 0.73, "unit": "x Veh level"}, {"measurement": "N-docosahexaenoyl ethanolamine, Magnitude (x Veh level)", "setting": "midbrain, PND 50, 3mg/kg CP 55,940, ANOVA p .023", "result": 0.81, "unit": "x Veh level"}, {"measurement": "N-oleoyl methionine, Magnitude (x Veh level)", "setting": "midbrain, PND 50, 3mg/kg CP 55,940, ANOVA p .026", "result": 0.54, "unit": "x Veh level"}, {"measurement": "N-arachidonoyl ethanolamine, Magnitude (x Veh level)", "setting": "midbrain, PND 50, 3mg/kg CP 55,940, ANOVA p .031", "result": 0.83, "unit": "x Veh level"}, {"measurement": "N-oleoyl ethanolamine, Magnitude (x Veh level)", "setting": "midbrain, PND 50, 3mg/kg CP 55,940, ANOVA p .037", "result": 0.83, "unit": "x Veh level"}]}]}
